Each structure is given as a SMILES string.

In experiment [1] the test system is RKO colon adenocarcinoma cells (RKOp27) arrested by the expression of ectopic p27Kip1. Description: Alamar Blue cell viability assay on RKOp27 cells arrested by p27Kip1 expression induced by Ponasterone A. It counts as cell-based. Conditions: Homo sapiens, 72 hours incubation, 10 μM Ponasterone A, read-out: IC50 RKO p27 induced (arrested). An outline of the steps:
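RKOp27 cells, 15000/well, held in DMEM with 10% FCS and with or without 10 μM Ponasterone A to induce p27Kip1 arrest. Compound dilutions added 24 h after seeding, then 72 h at 37 °C in quadruplicate. Alamar Blue fluorescence (544/590 nm) gave % viability relative to untreated cells.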
(Resazurin is reduced to fluorescent resorufin, in cell work by metabolically active cells.)

Experiment [2] deals with RKO (RKOp27) human colon adenocarcinoma cells. Description: Alamar Blue cell viability assay, anti-proliferative/cytotoxic activity on proliferating (uninduced) RKOp27 cells. It counts as cell-based. To be noted: 72 hours incubation, absence of the inducer Ponasterone A, read-out: IC50 RKO p27 uninduced (proliferating). An outline of the steps: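 RKOp27 subclones seeded at 5000 cells/well, compounds added after 24 h in DMEM/10% FCS, quadruplicates, 72 h at 37 °C, 5% CO2. Alamar Blue fluorescence (ex 544/em 590 nm) normalised to untreated cells (1% DMSO medium) as 100%; IC50 from concentration-effect curves.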

For `CCOc1ccccc1CCC(=O)Nc1sc2c(c1C#N)CCN(C(=O)CCn1ccnc1C)C2` [Example 109, N-{3-Cyano-6-[3-(2-methyl-imidazol-1-yl)-propanoyl]-4,5,6,7-tetrahydro-thieno[2,3-c]pyridin-2-yl}-3-(2-ethoxy-phenyl)-propionamide], the half-inhibitory concentration (IC50) is not below 10000 nM in experiment [1] and not above 300 nM in experiment [2].

For `COc1ccc(C)cc1CCC(=O)Nc1sc2c(c1C#N)CCN(C(=O)Cc1ccccn1)C2` [Example 60, N-[3-Cyano-6-(2-pyridin-2-yl-ethanoyl)-4,5,6,7-tetrahydro-thieno[2,3-c]pyridin-2-yl]-3-(2-methoxy-5-methyl-phenyl)-propionamide], the IC50 in experiment [1] is more than 100000 nM; in experiment [2], not above 300 nM.

Turning to `COc1ccccc1CCC(=O)Nc1sc2c(c1C#N)CCN(C(=O)CCc1ccncc1)C2` [Example 122, N-[3-Cyano-6-(3-pyridin-4-yl-propanoyl)-4,5,6,7-tetrahydro-thieno[2,3-c]pyridin-2-yl]-3-(2-methoxy-phenyl)-propionamide], the half-inhibitory concentration (IC50) in experiment [1] was more than 100000 nM; in experiment [2], not above 300 nM.

For `CCOc1ccccc1CCC(=O)Nc1sc2c(c1C#N)CCN(C(=O)COC)C2` [Example 19, N-[3-Cyano-6-(2-methoxy-ethanoyl)-4,5,6,7-tetrahydro-thieno[2,3-c]pyridin-2-yl]-3-(2-ethoxy-phenyl)-propionamide], the 50% inhibitory concentration (IC50) in experiment [1] was more than 100000 nM; in experiment [2], not above 300 nM.

Regarding `CCOc1ccccc1CCC(=O)Nc1sc2c(c1C#N)CCN(C(=O)CCOC)C2` [Example 13, N-[3-Cyano-6-(3-methoxy-propanoyl)-4,5,6,7-tetrahydro-thieno[2,3-c]pyridin-2-yl]-3-(2-ethoxy-phenyl)-propionamide], the IC50 in experiment [1] was more than 100000 nM; in experiment [2], not above 300 nM.

Consider `COc1ccccc1C(C)CC(=O)Nc1sc2c(c1C#N)CCN(C(=O)CCn1ccnc1C)C2` (racemic) [Example 105, (RS)—N-{3-Cyano-6-[3-(2-methyl-imidazol-1-yl)-propanoyl]-4,5,6,7-tetrahydro-thieno[2,3-c]pyridin-2-yl}-3-(2-methoxy-phenyl)-butyramide], for which the IC50 is not below 10000 nM in experiment [1] and 300 to 2000 nM in experiment [2].

Regarding `CCOc1ccccc1C(C)CC(=O)Nc1sc2c(c1C#N)CCN(C(=O)CCn1cnc(C)c1)C2` (racemic) [Example 153, (RS)—N-{3-Cyano-6-[3-(4-methyl-imidazol-1-yl)-propanoyl]-4,5,6,7-tetrahydro-thieno[2,3-c]pyridin-2-yl}-3-(2-ethoxy-phenyl)-butyramide], the half-inhibitory concentration (IC50) in experiment [1] was not below 10000 nM; in experiment [2], 300 to 2000 nM.

As for `CCOc1ccccc1C(C)CC(=O)Nc1sc2c(c1C#N)CCN(C(=O)Cc1ccccn1)C2` (racemic) [Example 63, (RS)—N-[3-Cyano-6-(2-pyridin-2-yl-ethanoyl)-4,5,6,7-tetrahydro-thieno[2,3-c]pyridin-2-yl]-3-(2-ethoxy-phenyl)-butyramide], the concentration for half-maximal inhibition (IC50) is not below 10000 nM in experiment [1] and not above 300 nM in experiment [2].

As to `CCOc1ccccc1CCC(=O)Nc1sc2c(c1C#N)CCN(C(=O)CCn1cc(C)nc1C)C2` [Example 162, N-{3-Cyano-6-[3-(2,4-dimethyl-imidazol-1-yl)-propanoyl]-4,5,6,7-tetrahydro-thieno[2,3-c]pyridin-2-yl}-3-(2-ethoxy-phenyl)-propionamide], the IC50 in experiment [1] was not below 10000 nM; in experiment [2] it was 300 to 2000 nM.

Take `COc1ccccc1C(C)CC(=O)Nc1sc2c(c1C#N)CCN(C(=O)CCc1nccn1C)C2` (racemic) [Example 113, (RS)—N-{3-Cyano-6-[3-(1-methyl-1H-imidazol-2-yl)-propanoyl]-4,5,6,7-tetrahydro-thieno[2,3-c]pyridin-2-yl}-3-(2-methoxy-phenyl)-butyramide]: the IC50 in experiment [1] was not below 10000 nM; in experiment [2] it was 300 to 2000 nM.

In general, IC50 refers to the concentration at which inhibition is half-maximal.

Values taken from patent US7763728B2, “Tetrahydropyridothiophenes” (4SC AG, priority 2005, dated 2010).
